Experimental data: ChEMBL document CHEMBL1201862, “PubChem BioAssay data set” (2004)
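Growth conditions: 96-well plates. Treatment: test compound, 48 hours, 5 concentrations. Analysis: linear interpolation between bracketing concentrations; unreached endpoints set to highest concentration. At the GI50, growth is halved.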 Activity calls are given as the source filed them. Cut-off read from the data, not from the text of the source: active = GI50 up to about 1.1 µM and inactive = higher.

What was measured:
Experiment in all cases: NCI-60 cell line screen, 48 h
[1] = system: NCI-H460
[2] = system: SF-268
[3] = system: OVCAR-3
[4] = system: HT-29
[5] = system: SW-620
[6] = system: NCI/ADR-RES
[7] = system: SK-MEL-28
[8] = system: MDA-MB-231
[9] = system: KM12
[10] = system: MDA-MB-435
[11] = system: SN12C
[12] = system: OVCAR-5
[13] = system: SK-MEL-2
[14] = system: 786-0
[15] = system: HCT-15
[16] = system: ACHN
[17] = system: HOP-92
[18] = system: MOLT-4
[19] = system: Malme-3M

Compound	GI50 [1]	GI50 [2]	GI50 [3]	GI50 [4]	GI50 [5]	GI50 [6]	GI50 [7]	GI50 [8]	GI50 [9]	GI50 [10]	GI50 [11]	GI50 [12]	GI50 [13]	GI50 [14]	GI50 [15] [µM]	GI50 [16]	GI50 [17]	GI50 [18]	GI50 [19]
COC(=O)C1(CCCCl)CCCN1C(=O)OC(C)(C)C (configuration not stated)	> 100 µM (inactive)	> 100 µM (inactive)	> 100 µM (inactive)	> 100 µM (inactive)	> 100 µM (inactive)	> 100 µM (inactive)	> 100 µM (inactive)	> 100 µM (inactive)	> 100 µM (inactive)	> 100 µM (inactive)	> 100 µM (inactive)	> 100 µM (inactive)	> 100 µM (inactive)	> 100 µM (inactive)	> 100	> 100 µM (inactive)	–	–	–
COc1ccc(C=O)c(N(C)C(=O)C(C)(C)C)c1	> 100 µM (inactive)	> 100 µM (inactive)	> 100 µM (inactive)	> 100 µM (inactive)	> 100 µM (inactive)	–	> 100 µM (inactive)	–	> 100 µM (inactive)	–	> 100 µM (inactive)	–	> 100 µM (inactive)	> 100 µM (inactive)	> 100	> 100 µM (inactive)	> 100 µM (inactive)	> 100 µM (inactive)	> 100 µM (inactive)
C[C@]12CC/C(=N\OC(=O)Nc3ccccc3)C=C1CC[C@@H]1C2CC[C@@]2(C)C1CC[C@@H]2OC(=O)Nc1ccccc1 (some centres not stated)	> 100 µM (inactive)	> 100 µM (inactive)	> 100 µM (inactive)	> 100 µM (inactive)	> 100 µM (inactive)	–	–	–	41.9 µM (inactive)	–	11.7 µM (inactive)	> 100 µM (inactive)	> 100 µM (inactive)	> 100 µM (inactive)	3.3	99.3 µM (inactive)	> 100 µM (inactive)	> 100 µM (inactive)	–
O=C(CC1(O)C(=O)Nc2ccccc21)c1ccccc1O (configuration not stated)	> 100 µM (inactive)	> 100 µM (inactive)	> 100 µM (inactive)	> 100 µM (inactive)	> 100 µM (inactive)	–	> 100 µM (inactive)	–	–	–	> 100 µM (inactive)	> 100 µM (inactive)	> 100 µM (inactive)	> 100 µM (inactive)	> 100	> 100 µM (inactive)	> 100 µM (inactive)	> 100 µM (inactive)	> 100 µM (inactive)
COc1ccc(C(=O)C2CCC(C(=O)O)C2)cc1 (configuration not stated)	> 100 µM (inactive)	–	> 100 µM (inactive)	> 100 µM (inactive)	> 100 µM (inactive)	–	> 100 µM (inactive)	–	> 100 µM (inactive)	–	> 100 µM (inactive)	> 100 µM (inactive)	> 100 µM (inactive)	> 100 µM (inactive)	> 100	> 100 µM (inactive)	> 100 µM (inactive)	> 100 µM (inactive)	> 100 µM (inactive)
COc1ccc(C)cc1-c1cc(Sc2ccccc2)c(-c2cc(C)ccc2OC)o1	> 31.6 µM (inactive)	> 31.6 µM (inactive)	> 31.6 µM (inactive)	> 31.6 µM (inactive)	> 29.6 µM (inactive)	–	> 31.6 µM (inactive)	–	> 31.6 µM (inactive)	–	> 31.6 µM (inactive)	> 100 µM (inactive)	> 10 µM (inactive)	> 31.6 µM (inactive)	> 31.6	> 31.6 µM (inactive)	> 31.6 µM (inactive)	> 31.6 µM (inactive)	> 31.6 µM (inactive)
O=C(OCc1ccccc1)N1N=NC2C1C1CC(OCc3ccccc3)(OCc3ccccc3)C2O1 (configuration not stated)	> 100 µM (inactive)	> 100 µM (inactive)	> 100 µM (inactive)	> 100 µM (inactive)	> 100 µM (inactive)	–	> 100 µM (inactive)	–	> 100 µM (inactive)	–	> 100 µM (inactive)	> 100 µM (inactive)	> 100 µM (inactive)	> 100 µM (inactive)	> 100	> 100 µM (inactive)	> 100 µM (inactive)	> 100 µM (inactive)	> 100 µM (inactive)
O=S(=O)(N/N=C/c1cccc(Cl)c1Cl)c1ccccc1	> 100 µM (inactive)	35.5 µM (inactive)	> 100 µM (inactive)	99.8 µM (inactive)	> 100 µM (inactive)	–	> 100 µM (inactive)	–	> 100 µM (inactive)	–	46 µM (inactive)	> 100 µM (inactive)	58.6 µM (inactive)	> 100 µM (inactive)	98.2	55 µM (inactive)	14.2 µM (inactive)	26.9 µM (inactive)	> 100 µM (inactive)
Cc1nc2c(n1C(C)(C)C)C(=O)c1ccccc1C2=O	36.7 µM (inactive)	54.5 µM (inactive)	38.6 µM (inactive)	44.1 µM (inactive)	> 100 µM (inactive)	–	> 100 µM (inactive)	–	74.1 µM (inactive)	–	50.5 µM (inactive)	–	80.4 µM (inactive)	> 100 µM (inactive)	56.6	48.6 µM (inactive)	9.31 µM (inactive)	49 µM (inactive)	44.6 µM (inactive)
CC(C)(C)c1cc2c(OP(c3ccccc3)c3ccccc3)c(c1)Cc1cc(C(C)(C)C)cc(c1OP(c1ccccc1)c1ccccc1)Cc1cc(C(C)(C)C)cc(c1OP(c1ccccc1)c1ccccc1)Cc1cc(C(C)(C)C)cc(c1OP(c1ccccc1)c1ccccc1)C2	> 5 µM (inactive)	> 5 µM (inactive)	> 5 µM (inactive)	> 5 µM (inactive)	> 5 µM (inactive)	–	> 5 µM (inactive)	–	> 5 µM (inactive)	–	> 5 µM (inactive)	> 5 µM (inactive)	> 5 µM (inactive)	> 5 µM (inactive)	> 5	> 5 µM (inactive)	> 5 µM (inactive)	> 5 µM (inactive)	> 5 µM (inactive)
O=C(c1cc(=O)c2ccc(O)cc2o1)c1ccc(Cl)cc1Cl	6.01 µM (inactive)	13.8 µM (inactive)	15.5 µM (inactive)	36.2 µM (inactive)	12.2 µM (inactive)	–	> 59.3 µM (inactive)	–	5.9 µM (inactive)	–	17.2 µM (inactive)	> 74.8 µM (inactive)	26 µM (inactive)	28.2 µM (inactive)	4.63	5.24 µM (inactive)	32.8 µM (inactive)	2.81 µM (inactive)	34.4 µM (inactive)
CC1(Sc2ccccc2)CN(Cc2ccccc2)C1=O (configuration not stated)	> 100 µM (inactive)	> 100 µM (inactive)	> 100 µM (inactive)	> 100 µM (inactive)	> 100 µM (inactive)	–	> 100 µM (inactive)	–	> 100 µM (inactive)	–	> 100 µM (inactive)	–	> 100 µM (inactive)	> 100 µM (inactive)	75.2	> 100 µM (inactive)	20.5 µM (inactive)	49.7 µM (inactive)	–
O=C1c2ccccc2C(=O)c2c1ccc1c3ccccc3n(Cc3ccccc3)c21	88.9 µM (inactive)	> 100 µM (inactive)	> 100 µM (inactive)	> 100 µM (inactive)	> 100 µM (inactive)	–	–	–	> 100 µM (inactive)	–	> 100 µM (inactive)	> 100 µM (inactive)	> 100 µM (inactive)	> 100 µM (inactive)	> 100	94.2 µM (inactive)	26.2 µM (inactive)	> 100 µM (inactive)	> 100 µM (inactive)
COc1cc2cccc(/N=C/c3c(Br)ccc(OC)c3OC(C)C)c2cc1OC	> 100 µM (inactive)	36 µM (inactive)	33.7 µM (inactive)	32.2 µM (inactive)	32.4 µM (inactive)	–	41.6 µM (inactive)	–	30.8 µM (inactive)	–	> 100 µM (inactive)	> 100 µM (inactive)	> 100 µM (inactive)	26.5 µM (inactive)	–	70.3 µM (inactive)	–	28.3 µM (inactive)	74.5 µM (inactive)
Cc1cc(N(CCC#N)CCC#N)ccc1/C=N\c1ccc(C(=O)NN2C(=O)/C(=C/c3ccc(N(CCC#N)CCC#N)cc3)N=C2c2cc([N+](=O)[O-])ccc2Cl)cc1	> 100 µM (inactive)	> 100 µM (inactive)	> 100 µM (inactive)	80.5 µM (inactive)	> 100 µM (inactive)	–	> 100 µM (inactive)	–	> 100 µM (inactive)	–	> 100 µM (inactive)	> 100 µM (inactive)	> 100 µM (inactive)	> 100 µM (inactive)	51.8	53.8 µM (inactive)	> 100 µM (inactive)	–	> 100 µM (inactive)
CC(C)[C@H]1CO[C@]2(C)[C@@H]3CN(Cc4ccccc4)C[C@@H]3C(=O)N12	> 100 µM (inactive)	> 100 µM (inactive)	> 100 µM (inactive)	> 100 µM (inactive)	> 100 µM (inactive)	–	> 100 µM (inactive)	–	> 100 µM (inactive)	–	> 100 µM (inactive)	–	> 100 µM (inactive)	> 100 µM (inactive)	> 100	> 100 µM (inactive)	74.5 µM (inactive)	> 100 µM (inactive)	> 100 µM (inactive)
CC1=CC(C)(c2c[nH]c3ccccc23)CC(C)(C)c2c1[nH]c1ccccc21 (configuration not stated)	17 µM (inactive)	25.1 µM (inactive)	14 µM (inactive)	12.9 µM (inactive)	16.9 µM (inactive)	–	14.5 µM (inactive)	–	23.7 µM (inactive)	–	14.3 µM (inactive)	18 µM (inactive)	–	13.8 µM (inactive)	–	17.2 µM (inactive)	–	6.93 µM (inactive)	16.6 µM (inactive)
COc1ccc(/C=C(\NC(=O)c2ccccc2)c2nc3ccccc3[nH]2)cc1	34.2 µM (inactive)	37 µM (inactive)	34.5 µM (inactive)	36.4 µM (inactive)	46.6 µM (inactive)	–	14.6 µM (inactive)	–	39.6 µM (inactive)	–	41.3 µM (inactive)	29 µM (inactive)	21.1 µM (inactive)	44 µM (inactive)	48.2	42.6 µM (inactive)	26.9 µM (inactive)	24.5 µM (inactive)	36.3 µM (inactive)
